According to patent US20260297105A1, “RAF-MEK PROTEIN COMPLEX MODULATORS AND METHODS OF USE THEREOF” (GANDEEVA THERAPEUTICS, INC., priority 2023, published 2026):

Assays:
MEK1 = molecular target: T1, MEK1 (Homo sapiens, UniProt Q02750); test: MEK1 kinase cascade assay (ADP-Glo), inhibition of MEK1 kinase activity; type: biochemical; conditions: 25 nM BRAF, 6.25 nM MEK1, 0.5 μM ERK, 1 mM ATP; 20 min preincubation, 1 hr at 25° C.; read-out: BRAF ADP Glo kinase assay V3 (IC50)
T1 construct: purchased SignalChem M02-14H
Method in brief: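 Cascade format with ADP-Glo read-out: BRAF (25 nM) and compound, 1% DMSO, 20 mins at 25° C, then MEK1 6.25 nM, ERK1 0.5 μM, ATP 1 mM for 1 hr at 25° C in HEPES pH 7.5 buffer with MgCl2, CHAPS and DTT. Percent inhibition, scaled between DMSO and 1 μM Trametinib, was fit by 4-parameter logistic to give IC50 (2 replicate wells).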

BRAF-MEK1 = test: BRAF-MEK TR-FRET assay, stabilization of MEK1 and BRAF interaction; type: binding; conditions: 4 nM BRAF, 10 nM MEK, 100 μM ATP; 1 hr at 25° C.; read-out: BRAF-MEK TR-FRET Assay (EC50, fold stabilization)
Method in brief: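 Read-out is fold stabilization (treated FRET ratio/DMSO, Em 665/620 nm), fit 4-parameter for EC50 from 2 replicates. Compounds sat with 4 nM GST-BRAF and 10 nM in-house His-MEK1 1 h at 25° C (Tris pH 7.5, MgCl2, 100 μM ATP), then detection antibodies 1 h.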

NCI-H292 cells = test: Cell viability assay (CellTiter-Glo), NCI-H292; type: cell-based; conditions: Homo sapiens, 72 hrs, read-out: Cell Viability Assay: IC50 Determination NCI-H292
Protocol: Cell culture: HCTI 16, HT-29, and NCI-H292 cells were acquired from American Type Culture Collection (ATCC). HCT116 and HT-29 cells were maintained in ATCC-formulated McCoy's 5a Medium Modified supplemented with 10% fetal bovine serum, NCI-H292 cells were cultured in ATCC formulated RPMI-1640 supplemented with 10% fetal bovine serum. All cells were maintained at 37° C., 5% CO2.
Efficacy of exemplary compounds in inhibition of cell viability: HCT116 and HT-29 cells were plated at 4,000 cells per well and NCI-H292 cells were plated at 2,000 cells per well in their respective media in 384-well white, TC-treated plates (Corning). After 24 hours of incubation, the cells were treated with vehicle (DMSO) or test compounds (0.1% DMSO in final volume) for 72 hrs. The plate was equilibrated at room temperature for 10 mins followed by addition of a 1:1 volume of CellTiter-Glo® reagent (Promega). The contents were mixed for 2 mins on an orbital shaker to induce lysis. The plate was incubated at room temperature for 10 mins to stabilize luminescent signal before measuring luminescence on a Cytation5 microplate reader (Agilent). % inhibition as a function of compound concentration from 3 replicate wells was fit with a 4-parameter logistic curve using GraphPad Prism or CDD Vault to derive IC50 values.
In this table, for the BRAF ADP Glo kinase assay, “A” indicates IC50 of less than 5 nM; “B” indicates IC50 of between 5 nM to 50 nM; and “C” indicates IC50 of between 50 nM to 500 nM. “D” indicates IC50 of greater than 500 nM. For the BRAF-MEK TR-FRET assay, “A” indicates EC50 of less than 50 nM; “B” indicates EC50 of between 50 nM to 200 nM; and “C” indicates EC50 of between 200 nM to 1 μM. “D′” indicates EC50 of greater than 1 μM. For the AlphaLisa P-ERK assay, “A” indicates IC50 of less than 1 nM; “B” indicates IC50 of between 1 nM to 10 nM; and “C” indicates IC50 of between 10 nM to 100 nM. “D” indicates IC50 of greater than 100 nM. For the cell viability assay, “A” indicates IC50 of less than 1 nM; “B” indicates IC50 of between 1 nM to 10 nM; and “C” indicates IC50 of between 10 nM to 100 nM. “D” indicates IC50 of greater than 100 nM.

T1 sequence (Q02750 whole entry): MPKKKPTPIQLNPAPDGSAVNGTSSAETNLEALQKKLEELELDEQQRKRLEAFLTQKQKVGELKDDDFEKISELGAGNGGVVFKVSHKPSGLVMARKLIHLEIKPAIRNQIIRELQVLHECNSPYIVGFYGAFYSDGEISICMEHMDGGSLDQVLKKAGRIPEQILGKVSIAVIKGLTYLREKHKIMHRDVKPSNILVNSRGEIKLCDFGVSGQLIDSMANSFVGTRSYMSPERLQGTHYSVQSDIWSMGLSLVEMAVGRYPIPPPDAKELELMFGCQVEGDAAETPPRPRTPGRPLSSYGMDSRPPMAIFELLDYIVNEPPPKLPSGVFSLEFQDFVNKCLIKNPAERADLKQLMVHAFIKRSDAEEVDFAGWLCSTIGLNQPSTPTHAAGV
T1 sequence (P15056 445-723 partner limits assumed): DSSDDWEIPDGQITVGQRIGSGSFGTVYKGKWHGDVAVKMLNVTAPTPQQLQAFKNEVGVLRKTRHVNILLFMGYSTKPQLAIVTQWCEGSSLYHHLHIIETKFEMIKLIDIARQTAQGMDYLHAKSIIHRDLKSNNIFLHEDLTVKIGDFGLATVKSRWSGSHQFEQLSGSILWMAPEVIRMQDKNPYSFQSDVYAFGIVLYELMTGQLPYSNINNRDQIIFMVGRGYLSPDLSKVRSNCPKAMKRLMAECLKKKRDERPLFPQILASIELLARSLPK

## C[C@@H]1c2ccc(Oc3cccnn3)c(F)c2OC(=O)N1Cc1cccc(NS(=O)(=O)N(C)C)c1F (single isomer, unassigned) [Compound 43]
MEK1
  IC50: < 5 nM
BRAF-MEK1
  EC50: < 50 nM
NCI-H292 cells
  IC50: 1 to 10 nM

## CNS(=O)(=O)Nc1cccc(CN2C(=O)Oc3cc(Oc4cccnn4)cc(F)c3[C@@H]2C)c1F (single isomer, unassigned) [Compound 56]
MEK1
  IC50: 5 to 50 nM
BRAF-MEK1
  EC50: 200 to 1000 nM
NCI-H292 cells
  IC50: 10 to 100 nM

## CNS(=O)(=O)Nc1cccc(CN2C(=O)Oc3cc(Oc4ncco4)ccc3[C@@H]2C)c1F (single isomer, unassigned) [Compound 78, (S)-3-({2-fluoro-3-(methylsulfamoyl)amino]phenyl}methyl)-4-methyl-7-(1,3-oxazol-2-yloxy)-3,4-dihydro-2H-1,3-benzoxazin-2-one or (R)-3-({2-fluoro-3-(methylsulfamoyl)amino]phenyl}methyl)-4-methyl-7-(1,3-oxazol-2-yloxy)-3,4-dihydro-2H-1,3-benzoxazin-2-one]
MEK1
  IC50: 5 to 50 nM
BRAF-MEK1
  EC50: 200 to 1000 nM
NCI-H292 cells
  IC50: 10 to 100 nM

## CNS(=O)(=O)Nc1cccc(CN2C(=O)Oc3c(ccc(OC(=O)N(C)C)c3F)[C@@H]2C)c1F (single isomer, unassigned) [Compound 103, (S)-8-fluoro-3-(2-fluoro-3-((N-methylsulfamoyl)amino)benzyl)-4-methyl-2-oxo-3,4-dihydro-2H-benzo[e][1,3]oxazin-7-yl dimethylcarbamate or (R)-8-fluoro-3-(2-fluoro-3-((N-methylsulfamoyl)amino)benzyl)-4-methyl-2-oxo-3,4-dihydro-2H-benzo[e][1,3]oxazin-7-yl dimethylcarbamate]
MEK1
  IC50: 5 to 50 nM
BRAF-MEK1
  EC50: 200 to 1000 nM
NCI-H292 cells
  IC50: 1 to 10 nM

## CNS(=O)(=O)Nc1cccc(CN2C(=O)Oc3cc(OC(=O)N(C)C)ccc3C23CCC3)c1F [Compound 38, 3-({2-fluoro-3-[(methylsulfamoyl)amino]phenyl}methyl)-2-oxo-2,3-dihydrospiro[1,3-benzoxazine-4,1′-cyclobutan]-7-yl N,N-dimethylcarbamate]
MEK1
  IC50: < 5 nM
BRAF-MEK1
  EC50: < 50 nM
NCI-H292 cells
  IC50: < 1 nM

## [2H]C1([2H])c2ccc(Oc3cccnn3)cc2OC(=O)N1Cc1cccc(NS(=O)(=O)N(C)C)c1F [Compound 39, 3-{[3-(dimethylaminosulfonylamino)-2-fluorophenyl]methyl}-7-(3-pyridazinyloxy)(4,4-^2H2)-3,4-dihydro-2H-1,3-benzoxazin-2-one]
MEK1
  IC50: 5 to 50 nM
BRAF-MEK1
  EC50: < 50 nM
NCI-H292 cells
  IC50: 1 to 10 nM

## CNS(=O)(=O)Nc1cccc(CN2C(=O)Oc3cc(Oc4cccnn4)ccc3C2(C)C)c1F [Compound 51, 3-({2-fluoro-3-[(methylsulfamoyl)amino]phenyl}methyl)-4,4-dimethyl-7-(pyridazine-3-yloxy)-3,4-dihydro-2H-1,3-benzoxazin-2-one]
MEK1
  IC50: 5 to 50 nM
BRAF-MEK1
  EC50: 200 to 1000 nM
NCI-H292 cells
  IC50: 10 to 100 nM

## CNS(=O)(=O)Nc1cccc(CN2C(=O)Oc3c(ccc(OC(=O)N(C)C)c3F)C23COC3)c1F [Compound 77, 8-fluoro-3-({2-fluoro-3-(methylsulfamoyl)amino]phenyl}methyl)-2-oxo-2,3-dihydrospiro[1,3-benzoxazine-4,3′-oxetan]-7-yl N,N-dimethyl carbamate]
MEK1
  IC50: 5 to 50 nM
BRAF-MEK1
  EC50: 50 to 200 nM
NCI-H292 cells
  IC50: < 1 nM

## CN(C)C(=O)Oc1cc(F)c2c(c1)OC(=O)N(Cc1cccc(NS(=O)(=O)C3CC3)c1F)C2 [Compound 102, 3-(3-(cyclopropanesulfonamido)-2-fluorobenzyl)-5-fluoro-2-oxo-3,4-dihydro-2H-benzo[e][1,3]oxazin-7-yl dimethylcarbamate]
MEK1
  IC50: 5 to 50 nM
BRAF-MEK1
  EC50: 50 to 200 nM
NCI-H292 cells
  IC50: 1 to 10 nM

## CNS(=O)(=O)Nc1cccc(CN2C(=O)Oc3cc(OC(=O)N(C)C)c(Cl)cc3[C@@H]2C)c1F [Compound 108, (S)-6-chloro-7-(dimethylaminocarbonyloxy)-3-{[2-fluoro-3-(methylaminosulfonylamino)phenyl]methyl}-4-methyl-3,4-dihydro-2H-1,3-benzoxazin-2-one]
MEK1
  IC50: 5 to 50 nM
BRAF-MEK1
  EC50: 50 to 200 nM
NCI-H292 cells
  IC50: < 1 nM

## CNS(=O)(=O)Nc1cccc(CN2Cc3cc(C)c(OC(=O)N(C)C)cc3OC2=O)c1F [Compound 112, 3-(2-fluoro-3-((N-methylsulfamoyl)amino)benzyl)-6-methyl-2-oxo-3,4-dihydro-2H-benzo[e][1,3]oxazin-7-yl dimethylcarbamate]
MEK1
  IC50: < 5 nM
BRAF-MEK1
  EC50: 200 to 1000 nM
NCI-H292 cells
  IC50: 1 to 10 nM

## CN(C)C(=O)Oc1ccc2c(c1)OC(=O)N(Cc1cccc(NS(=O)(=O)N3CCC(F)C3)c1F)C2 (stereo not drawn) [Compound 113, 3-(2-fluoro-3-((3-fluoropyrrolidine)-1-sulfonamido)benzyl)-2-oxo-3,4-dihydro-2H-benzo[e][1,3]oxazin-7-yl dimethylcarbamate]
MEK1
  IC50: 5 to 50 nM
BRAF-MEK1
  EC50: 200 to 1000 nM
NCI-H292 cells
  IC50: 1 to 10 nM

## CNS(=O)(=O)Nc1cccc(CN2Cc3ccc(Oc4ncccn4)c(F)c3OC2=O)c1F [Compound 123, 8-fluoro-3-{[2-fluoro-3-(methylaminosulfonylamino)phenyl]methyl}-7-(2-pyrimidinyloxy)-3,4-dihydro-2H-1,3-benzoxazin-2-one]
MEK1
  IC50: 5 to 50 nM
BRAF-MEK1
  EC50: 200 to 1000 nM
NCI-H292 cells
  IC50: 10 to 100 nM

## CN(C)C(=O)Oc1ccc2c(c1)OC(=O)N(Cc1cccc(NS(=O)(=O)C3CC3)c1F)C2 [Compound 125, 3-(3-(cyclopropanesulfonamido)-2-fluorobenzyl)-2-oxo-3,4-dihydro-2H-benzo[e][1,3]oxazin-7-yl dimethylcarbamate]
MEK1
  IC50: 5 to 50 nM
BRAF-MEK1
  EC50: 200 to 1000 nM
NCI-H292 cells
  IC50: 10 to 100 nM

## CNS(=O)(=O)Nc1nccc(CN2C(=O)Oc3cc(Oc4ncco4)c(F)cc3C23CCC3)c1F [Compound 165, 6-fluoro-3-{[3-fluoro-2-(methylaminosulfonylamino)-4-pyridyl]methyl}-7-(1,3-oxazol-2-yloxy)-2H,3H-spiro[1,3-benzoxazine-4,1′-cyclobutan]-2-one]
MEK1
  IC50: < 5 nM
BRAF-MEK1
  EC50: < 50 nM
NCI-H292 cells
  IC50: 1 to 10 nM

## CNS(=O)(=O)Nc1nccc(CN2C(=O)Oc3cc(Oc4nccnn4)c(F)cc3C23CCC3)c1F [Compound 166, 6-fluoro-3-{[3-fluoro-2-(methylaminosulfonylamino)-4-pyridyl]methyl}-7-(1,2,4-triazin-3-yloxy)-2H,3H-spiro[1,3-benzoxazine-4,1′-cyclobutan]-2-one]
MEK1
  IC50: 5 to 50 nM
BRAF-MEK1
  EC50: < 50 nM
NCI-H292 cells
  IC50: 1 to 10 nM

## O=C1Oc2cc(Oc3ncco3)ccc2C2(CCC2)N1Cc1ccnc(NS(=O)(=O)C2CC2)c1F [Compound 167, (cyclopropylsulfonyl)[3-fluoro-4-({7-(1,3-oxazol-2-yloxy)-2-oxo-2H,3H-spiro[1,3-benzoxazine-4,1′-cyclobutan]-3-yl}methyl)-2-pyridyl]amine]
MEK1
  IC50: 5 to 50 nM
BRAF-MEK1
  EC50: 50 to 200 nM
NCI-H292 cells
  IC50: 10 to 100 nM

## CNS(=O)(=O)Nc1nccc(CN2C(=O)Oc3cc(Oc4ncco4)cc(F)c3C23CCC3)c1F [Compound 169, 5-fluoro-3-{[3-fluoro-2-(methylaminosulfonylamino)-4-pyridyl]methyl}-7-(1,3-oxazol-2-yloxy)-2H,3H-spiro[1,3-benzoxazine-4,1′-cyclobutan]-2-one]
MEK1
  IC50: 5 to 50 nM
BRAF-MEK1
  EC50: < 50 nM
NCI-H292 cells
  IC50: 1 to 10 nM
